# Results: patent US9718828B2 (MERCK SHARP & DOHME CORP., priority 2011, dated 2017)
# Structures can show the parent of a compound that is named as a salt.
# Target: Btk enzyme (His-Btk) (Homo sapiens (Human), UniProt Q06187)
# Experiment: Btk enzyme activity, IMAP fluorescence polarization assay (Assay Method A)
# Conditions: not given
# Sequence of Btk enzyme (His-Btk) (Q06187 whole entry): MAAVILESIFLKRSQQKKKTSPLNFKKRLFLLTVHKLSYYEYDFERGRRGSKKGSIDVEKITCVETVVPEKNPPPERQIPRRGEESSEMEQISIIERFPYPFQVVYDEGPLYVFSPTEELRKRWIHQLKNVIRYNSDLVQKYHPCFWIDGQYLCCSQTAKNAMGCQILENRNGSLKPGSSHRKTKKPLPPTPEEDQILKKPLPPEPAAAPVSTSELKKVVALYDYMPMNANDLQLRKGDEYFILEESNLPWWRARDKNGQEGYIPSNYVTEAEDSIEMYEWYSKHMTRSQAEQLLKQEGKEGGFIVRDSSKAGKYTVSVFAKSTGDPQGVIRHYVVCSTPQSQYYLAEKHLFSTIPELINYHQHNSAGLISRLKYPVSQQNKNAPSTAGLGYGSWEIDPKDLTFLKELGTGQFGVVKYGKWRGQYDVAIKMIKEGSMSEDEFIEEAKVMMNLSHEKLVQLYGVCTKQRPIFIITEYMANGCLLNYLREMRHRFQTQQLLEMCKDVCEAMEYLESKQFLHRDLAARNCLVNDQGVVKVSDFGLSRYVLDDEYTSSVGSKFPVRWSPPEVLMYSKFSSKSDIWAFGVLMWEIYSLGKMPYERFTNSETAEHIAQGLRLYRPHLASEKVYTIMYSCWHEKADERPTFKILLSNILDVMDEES
row,EC50 [nM],SMILES
1,10 to 100,"CC(C)C(=O)N1CCC[C@@H](n2nc(-c3ccc(C(=O)Nc4cc(C(F)(F)F)ccn4)cc3)c3c(N)ncnc32)C1 [Example 279, (R)-4-(4-amino-1-(1-isobutyrylpiperidin-3-yl)-1H-pyrazolo[3,4-d]pyrimidin-3-yl)-N-(4-(trifluoromethyl)pyridin-2-yl)benzamide]"
2,< 10,"CCOC(=O)N1CCCC(c2cc(-c3ccc(C(=O)Nc4cc(C(F)(F)F)ccn4)cc3)c3c(N)ncnn23)C1 (stereo not drawn) [Example 251, ethyl 3-(4-amino-5-(4-(4-(trifluoromethyl)pyridin-2-ylcarbamoyl)phenyl)pyrrolo[1,2-f][1,2,4]triazin-7-yl)piperidine-1-carboxylate]"
3,10 to 100,"COCC1(C(=O)N2CCC[C@@H](n3nc(-c4ccc(C(=O)Nc5cc(C(F)(F)F)ccn5)cc4)c4c(N)ncnc43)C2)CCC1 [Example 272, (R)-4-(4-amino-1-(1-(1-(methoxymethyl)cyclobutanecarbonyl)piperidin-3-yl)-1H-pyrazolo[3,4-d]pyrimidin-3-yl)-N-(4-(trifluoromethyl)pyridin-2-yl)benzamide]"
4,10 to 100,"COCc1n[nH]c2c1CC(c1nc(-c3ccc(C(=O)Nc4cc(C(F)(F)F)ccn4)cc3)c3c(N)nccn13)CC2 (stereo not drawn) [Example 250, 4-(8-amino-3-(3-(methoxymethyl)-4,5,6,7-tetrahydro-1H-indazol-5-yl)imidazo[1,5-a]pyrazin-1-yl)-N-(4-(trifluoromethyl)pyridin-2-yl)benzamide]"
5,10 to 100,"C[C@@H]1CC[C@@H](c2nc(-c3ccc(C(=O)Nc4cc(C(F)(F)F)ccn4)cc3)c3c(N)nccn23)CN1C(=O)C1CCCO1 (relative stereo) [Example 185, 4-(8-amino-3-((trans)-6-methyl-1-(tetrahydrofuran-2-carbonyl)piperidin-3-yl)imidazo[1,5-a]pyrazin-1-yl)-N-(4-(trifluoromethyl)pyridin-2-yl)benzamide, TFA salt]"
6,10 to 100,"CC1(C(=O)N2CCC[C@@H](c3nc(-c4ccc(C(=O)Nc5cc(C(F)(F)F)ccn5)cc4)c4c(N)ncc(-c5ccccc5)n34)C2)COC1 [Example 321, (R)-4-(8-amino-3-(1-(3-methyloxetane-3-carbonyl)piperidin-3-yl)-5-phenylimidazo[1,5-a]pyrazin-1-yl)-N-(4-(trifluoromethyl)pyridin-2-yl)benzamide]"

# The next lines start with the compound.
row,SMILES,EC50 [nM]
1,"CC(C)(F)C(=O)N1CCC[C@@H](c2nc(-c3ccc(C(=O)Nc4cc(C5CC5)ccn4)cc3)c3c(N)nccn23)C1 [Example 64, (R)-4-(8-amino-3-(1-(2-fluoro-2-methylpropanoyl)piperidin-3-yl)imidazo[1,5-a]pyrazin-1-yl)-N-(4-cyclopropylpyridin-2-yl)benzamide]",< 10
2,"CCc1cnc(NC(=O)c2ccc(-c3nc([C@H]4CC[C@@H](OC)CC4)n4ccnc(N)c34)cc2)s1 [Example 39, 4-(8-amino-3-((cis)-4-methoxycyclohexyl)imidazo [1,5-a]pyrazin-1-yl)-N-(5-ethylthiazol-2-yl)benzamide]",10 to 100
3,"Nc1nccn2c1c(-c1ccc(C(=O)Nc3nc4c(s3)COCC4)cc1)nc2[C@H]1CC[C@H](O)CC1 [Example 15, 4-(8-amino-3-((trans)-4-hydroxycyclohexyl)imidazo[1,5-a]pyrazin-1-yl)-N-(6,7-dihydro-4H-pyrano[4,3-d]thiazol-2-yl)benzamide]",10 to 100
4,"COCCC(=O)N1CCC[C@@H](c2nc(-c3ccc(C(=O)Nc4cc(C5CC5)ccn4)cc3)c3c(N)nccn23)C1 [Example 61, (R)-4-(8-amino-3-(1-(3-methoxypropanoyl)piperidin-3 yl)imidazo[1,5-a]pyrazin-1-yl)-N-(4-cyclopropylpyridin-2-yl)benzamide]",< 10
5,"Nc1nccn2c([C@@H]3CCCN(C=O)C3)nc(-c3ccc(C(=O)Nc4ccccn4)cc3)c12 [Example 95, (R)-4-(8-amino-3-(1-formylpiperidin-3-yl)imidazo[1,5-a]pyrazin-1-yl)-N-(pyridin-2-yl)benzamide]",10 to 100
6,"COCCC(=O)N1CCC[C@@H](c2nc(-c3ccc(C(=O)Nc4ccccn4)cc3)c3c(N)nccn23)C1 [Example 50, (R)-4-(8-amino-3-(1-(3-methoxypropanoyl)piperidin-3-yl)imidazo[1,5-a]pyrazin-1-yl)-N-(pyridin-2-yl)benzamide]",< 10
7,"CC1CC1C(=O)N1CCC[C@@H](c2nc(-c3ccc(C(=O)Nc4cc(C5CC5)ccn4)cc3)c3c(N)nccn23)C1 (stereo partly drawn) [Example 62, 4-(8-amino-3-((3R)-1-(2-methylcyclopropanecarbonyl)piperidin-3-yl)imidazo[1,5-a]pyrazin-1-yl)-N-(4-cyclopropylpyridin-2-yl)benzamide]",< 10
8,"Nc1nccn2c(C3CCOCC3)nc(-c3ccc(C(=O)Nc4ccccn4)cc3)c12 [Example 27, 4-(8-amino-3-(tetrahydro-2H-pyran-4-yl)imidazo[1,5-a]pyrazin-1-yl)-N-(pyridin-2-yl)benzamide]",10 to 100

# Same assay, conditions: read-out: EC50 Btk activity values - Assay Method A; IMAP-FP, 60 min pre-incubation, 5 μM ATP; class 100-1000 is given as ≧100 nM-<1 μM
row,EC50 [nM],SMILES
1,< 10,"CC(C)C(=O)N[C@H]1CCC[C@@H](c2nc(-c3ccc(C(=O)Nc4cc(C(F)(F)F)ccn4)cc3)c3c(N)nccn23)C1 (relative stereo) [Example 159, 4-(8-amino-3-((cis)-3-isobutyramidocyclohexyl)imidazo [1,5-a]pyrazin-1-yl)-N-(4-(trifluoromethyl)pyridin-2-yl)benzamide]"
2,< 10,"Nc1nccn2c([C@@H]3CCC[C@H](NC(=O)C4CC4)C3)nc(-c3ccc(C(=O)Nc4cc(C(F)(F)F)ccn4)cc3)c12 (relative stereo) [Example 156, 4-(8-amino-3-((cis)-3-(cyclopropanecarboxamido)cyclohexyl)imidazo[1,5-a]pyrazin-1-yl)-N-(4-(trifluoromethyl)pyridin-2-yl)benzamide]"
3,< 10,"Nc1nccn2c([C@@H]3CCC[C@@H](N)C3)nc(-c3ccc(C(=O)Nc4cc(C(F)(F)F)ccn4)cc3)c12 (relative stereo) [Example 165, 4-(8-amino-3-((trans)-3-aminocyclohexyl)imidazo[1,5-a]pyrazin-1-yl)-N-(4-(trifluoromethyl)pyridin-2-yl)benzamide]"
4,< 10,"C=Cc1cnc(N)c2c(-c3ccc(C(=O)Nc4cc(C(F)(F)F)ccn4)cc3)nc([C@@H]3CCCN(C(=O)C4(C)COC4)C3)n12 [Example 302, (R)-4-(8-amino-3-(1-(3-methyloxetane-3-carbonyl)piperidin-3-yl)-5-vinylimidazo[1,5-a]pyrazin-1-yl)-N-(4-(trifluoromethyl)pyridin-2-yl)benzamide]"

# Further lines, the compound ahead of its results:
row,SMILES,EC50 [nM]
1,"CC1(C)CC(c2nc(-c3ccc(C(=O)Nc4cc(C(F)(F)F)ccn4)cc3)c3c(N)nccn23)CCO1 (stereo not drawn) [Example 34, 4-(8-amino-3-(2,2-dimethyltetrahydro-2H-pyran-4-yl)imidazo[1,5-a]pyrazin-1-yl)-N-(4-(trifluoromethyl)pyridin-2-yl)benzamide]",< 10
2,"Nc1nccn2c1c(-c1ccc(C(=O)Nc3cc(C4CC4)ccn3)cc1)nc2[C@H]1CC[C@H](O)CC1 [Example 7, 4-(8-amino-3-((trans)-4-hydroxycyclohexyl)imidazo[1,5-a]pyrazin-1-yl)-N-(4-cyclopropylpyridin-2-yl)benzamide]",< 10
3,"Cc1nnc(C(=O)N2CCC[C@@H](c3nc(-c4ccc(C(=O)Nc5cc(C6CC6)ccn5)cc4)c4c(N)nccn34)C2)o1 [Example 116, (R)-4-(8-amino-3-(1-(5-methyl-1,3,4-oxadiazole-2-carbonyl)piperidin-3-yl)imidazo[1,5-a]pyrazin-1-yl)-N-(4-cyclopropylpyridin-2-yl)benzamide]",< 10
